{"source": "ChEMBL document CHEMBL2016455", "about": "“5-Benzothiazole substituted pyrimidine derivatives as HCV replication (replicase) inhibitors” (Bioorg Med Chem Lett, 2012)", "key": {"Hepatitis C virus": {"tested_on": "Hepatitis C virus", "assay": "Antiviral activity against Hepatitis C virus isolate con1 1b infected in human hepatoma cells replicon cells after 3 days by RT-PCR analysis", "format": "functional, organism-based, Hepacivirus hominis, genotype 1b Con1", "details": "Hepatitis C virus, genotype 1b Con1, 72 h"}, "[1]": {"assay": "Cytotoxicity against human hepatoma cells after 3 days by MTS assay", "format": "cell-based", "details": "human hepatoma cells"}, "[2]": {"assay": "Cytotoxicity against human hepatoma cells assessed as decrease in RNA level after 3 days by RT-PCR analysis", "format": "cell-based", "details": "human hepatoma cells"}, "[3]": {"assay": "AUC (0 to 6 hrs) in rat at 10 mg/kg, po", "format": "ADME, organism-based", "parameters": "time < 6 hr, dose 10 mg/kg, route oral", "details": "plasma"}, "Liver": {"tested_on": "Liver", "assay": "Drug uptake in rat liver per mg tissue at 10 mg/kg, po after 6 hrs", "format": "ADME, organism-based", "parameters": "dose 10 mg/kg, route oral", "details": "in vivo"}}, "note": "pEC50: −log10 of the molar value."}
{"compound": "Nc1nc(Cl)c(-c2ccccc2)c(N[C@@H]2C[C@H](CO)[C@@H](O)[C@H]2O)n1", "values": [{"measurement": "pEC50", "setting": "Hepatitis C virus", "value": "< 4.60"}, {"measurement": "CC50 at 72 h", "setting": "[1]", "value": "> 25", "unit": "µM"}]}
{"compound": "Nc1nc(Cl)c(-c2ccccn2)c(N[C@@H]2C[C@H](CO)[C@@H](O)[C@H]2O)n1", "values": [{"measurement": "CC50 at 72 h", "setting": "[2]", "value": "> 25", "unit": "µM"}, {"measurement": "pEC50", "setting": "Hepatitis C virus", "value": "< 4.60"}, {"measurement": "CC50 at 72 h", "setting": "[1]", "value": "> 25", "unit": "µM"}]}
{"compound": "Nc1nc(Cl)c(-c2cnccn2)c(N[C@@H]2C[C@H](CO)[C@@H](O)[C@H]2O)n1", "values": [{"measurement": "pEC50", "setting": "Hepatitis C virus", "value": "< 4.60"}, {"measurement": "CC50 at 72 h", "setting": "[1]", "value": "> 25", "unit": "µM"}]}
{"compound": "Nc1nc(Cl)c(-c2ccco2)c(N[C@@H]2C[C@H](CO)[C@@H](O)[C@H]2O)n1", "values": [{"measurement": "CC50 at 72 h", "setting": "[2]", "value": "> 25", "unit": "µM"}, {"measurement": "pEC50", "setting": "Hepatitis C virus", "value": 5.40}, {"measurement": "CC50 at 72 h", "setting": "[1]", "value": "> 25", "unit": "µM"}]}
{"compound": "Nc1nc(Cl)c(-c2cccs2)c(N[C@@H]2C[C@H](CO)[C@@H](O)[C@H]2O)n1", "values": [{"measurement": "CC50 at 72 h", "setting": "[2]", "value": "> 25", "unit": "µM"}, {"measurement": "pEC50", "setting": "Hepatitis C virus", "value": "< 4.60"}]}
{"compound": "Nc1nc(Cl)c(-c2ncco2)c(N[C@@H]2C[C@H](CO)[C@@H](O)[C@H]2O)n1", "values": [{"measurement": "CC50 at 72 h", "setting": "[2]", "value": "> 25", "unit": "µM"}, {"measurement": "pEC50", "setting": "Hepatitis C virus", "value": "< 4.60"}, {"measurement": "CC50 at 72 h", "setting": "[1]", "value": "> 25", "unit": "µM"}]}
{"compound": "Nc1nc(Cl)c(-c2nccs2)c(N[C@@H]2C[C@H](CO)[C@@H](O)[C@H]2O)n1", "values": [{"measurement": "CC50 at 72 h", "setting": "[2]", "value": "> 25", "unit": "µM"}, {"measurement": "pEC50", "setting": "Hepatitis C virus", "value": 5.52}, {"measurement": "CC50 at 72 h", "setting": "[1]", "value": "> 25", "unit": "µM"}]}
{"compound": "Nc1nc(Cl)c(-c2cc3ccccc3[nH]2)c(N[C@@H]2C[C@H](CO)[C@@H](O)[C@H]2O)n1", "values": [{"measurement": "pEC50", "setting": "Hepatitis C virus", "value": 5.15}, {"measurement": "CC50 at 72 h", "setting": "[1]", "value": 25, "unit": "µM"}]}
{"compound": "Nc1nc(Cl)c(-c2cc3ccccc3o2)c(N[C@@H]2C[C@H](CO)[C@@H](O)[C@H]2O)n1", "values": [{"measurement": "pEC50", "setting": "Hepatitis C virus", "value": 6.52}, {"measurement": "CC50 at 72 h", "setting": "[1]", "value": "> 25", "unit": "µM"}]}
{"compound": "Nc1nc(Cl)c(-c2cc3ccccc3s2)c(N[C@@H]2C[C@H](CO)[C@@H](O)[C@H]2O)n1", "values": [{"measurement": "CC50 at 72 h", "setting": "[2]", "value": "> 25", "unit": "µM"}, {"measurement": "pEC50", "setting": "Hepatitis C virus", "value": "< 4.60"}]}
{"compound": "Nc1nc(Cl)c(-c2nc3ccccc3o2)c(N[C@@H]2C[C@H](CO)[C@@H](O)[C@H]2O)n1", "values": [{"measurement": "CC50 at 72 h", "setting": "[2]", "value": 12, "unit": "µM"}, {"measurement": "pEC50", "setting": "Hepatitis C virus", "value": 7.30}, {"measurement": "CC50 at 72 h", "setting": "[1]", "value": 15, "unit": "µM"}]}
{"compound": "Nc1nc(Cl)c(-c2nc3ccccc3s2)c(N[C@@H]2C[C@H](CO)[C@@H](O)[C@H]2O)n1", "values": [{"measurement": "CC50 at 72 h", "setting": "[2]", "value": 14, "unit": "µM"}, {"measurement": "pEC50", "setting": "Hepatitis C virus", "value": 7.70}, {"measurement": "AUC(0-t) at 6 h", "setting": "[3]", "value": 0.08, "unit": "µM·h"}, {"measurement": "CC50 at 72 h", "setting": "[1]", "value": 18, "unit": "µM"}]}
{"compound": "Nc1nc(Cl)c(-c2nc3ccc(F)cc3s2)c(N[C@@H]2C[C@H](CO)[C@@H](O)[C@H]2O)n1", "values": [{"measurement": "CC50 at 72 h", "setting": "[2]", "value": "> 25", "unit": "µM"}, {"measurement": "pEC50", "setting": "Hepatitis C virus", "value": 6.74}, {"measurement": "CC50 at 72 h", "setting": "[1]", "value": "> 25", "unit": "µM"}]}
{"compound": "Nc1nc(Cl)c(-c2nc3ccc(Cl)cc3s2)c(N[C@@H]2C[C@H](CO)[C@@H](O)[C@H]2O)n1", "values": [{"measurement": "CC50 at 72 h", "setting": "[2]", "value": 16, "unit": "µM"}, {"measurement": "pEC50", "setting": "Hepatitis C virus", "value": 6.19}, {"measurement": "CC50 at 72 h", "setting": "[1]", "value": "> 25", "unit": "µM"}]}
{"compound": "COc1ccc2nc(-c3c(Cl)nc(N)nc3N[C@@H]3C[C@H](CO)[C@@H](O)[C@H]3O)sc2c1", "values": [{"measurement": "CC50 at 72 h", "setting": "[2]", "value": "> 25", "unit": "µM"}, {"measurement": "pEC50", "setting": "Hepatitis C virus", "value": 7.35}, {"measurement": "CC50 at 72 h", "setting": "[1]", "value": "> 25", "unit": "µM"}]}
{"compound": "CCOc1ccc2nc(-c3c(Cl)nc(N)nc3N[C@@H]3C[C@H](CO)[C@@H](O)[C@H]3O)sc2c1", "values": [{"measurement": "CC50 at 72 h", "setting": "[2]", "value": "> 25", "unit": "µM"}, {"measurement": "pEC50", "setting": "Hepatitis C virus", "value": 7.52}, {"measurement": "CC50 at 72 h", "setting": "[1]", "value": 25, "unit": "µM"}]}
{"compound": "CNc1ccc2nc(-c3c(Cl)nc(N)nc3N[C@@H]3C[C@H](CO)[C@@H](O)[C@H]3O)sc2c1", "values": [{"measurement": "CC50 at 72 h", "setting": "[2]", "value": 6, "unit": "µM"}, {"measurement": "pEC50", "setting": "Hepatitis C virus", "value": 7.30}, {"measurement": "CC50 at 72 h", "setting": "[1]", "value": 16, "unit": "µM"}]}
{"compound": "CNc1ccc2sc(-c3c(Cl)nc(N)nc3N[C@@H]3C[C@H](CO)[C@@H](O)[C@H]3O)nc2c1", "values": [{"measurement": "CC50 at 72 h", "setting": "[2]", "value": 20, "unit": "µM"}, {"measurement": "pEC50", "setting": "Hepatitis C virus", "value": 7.70}, {"measurement": "CC50 at 72 h", "setting": "[1]", "value": 14, "unit": "µM"}]}
{"compound": "CN(C)c1ccc2nc(-c3c(Cl)nc(N)nc3N[C@@H]3C[C@H](CO)[C@@H](O)[C@H]3O)sc2c1", "values": [{"measurement": "CC50 at 72 h", "setting": "[2]", "value": "> 25", "unit": "µM"}, {"measurement": "pEC50", "setting": "Hepatitis C virus", "value": 6.00}, {"measurement": "CC50 at 72 h", "setting": "[1]", "value": "> 25", "unit": "µM"}]}
{"compound": "CN(C)c1ccc2sc(-c3c(Cl)nc(N)nc3N[C@@H]3C[C@H](CO)[C@@H](O)[C@H]3O)nc2c1", "values": [{"measurement": "CC50 at 72 h", "setting": "[2]", "value": 25, "unit": "µM"}, {"measurement": "pEC50", "setting": "Hepatitis C virus", "value": 7.46}, {"measurement": "CC50 at 72 h", "setting": "[1]", "value": 21, "unit": "µM"}]}
{"compound": "Cc1nc(N)nc(N[C@@H]2C[C@H](CO)[C@@H](O)[C@H]2O)c1-c1nc2ccccc2s1", "values": [{"measurement": "CC50 at 72 h", "setting": "[2]", "value": 4, "unit": "µM"}, {"measurement": "pEC50", "setting": "Hepatitis C virus", "value": 6.89}, {"measurement": "AUC(0-t) at 6 h", "setting": "[3]", "value": 4.7, "unit": "µM·h"}, {"measurement": "CC50 at 72 h", "setting": "[1]", "value": 25, "unit": "µM"}]}
{"compound": "CCCNc1nc(C)c(-c2nc3ccccc3s2)c(N[C@@H]2C[C@H](CO)[C@@H](O)[C@H]2O)n1", "values": [{"measurement": "CC50 at 72 h", "setting": "[2]", "value": "> 25", "unit": "µM"}, {"measurement": "pEC50", "setting": "Hepatitis C virus", "value": 6.51}, {"measurement": "CC50 at 72 h", "setting": "[1]", "value": "> 25", "unit": "µM"}]}
{"compound": "Cc1nc(NCC(C)C)nc(N[C@@H]2C[C@H](CO)[C@@H](O)[C@H]2O)c1-c1nc2ccccc2s1", "values": [{"measurement": "Drug uptake", "setting": "Liver", "value": 510, "unit": "ng/g"}, {"measurement": "CC50 at 72 h", "setting": "[2]", "value": 10, "unit": "µM"}, {"measurement": "pEC50", "setting": "Hepatitis C virus", "value": 7.22}, {"measurement": "AUC(0-t) at 6 h", "setting": "[3]", "value": 2.3, "unit": "µM·h"}, {"measurement": "CC50 at 72 h", "setting": "[1]", "value": 10, "unit": "µM"}]}
{"compound": "Cc1nc(NCC2CC2)nc(N[C@@H]2C[C@H](CO)[C@@H](O)[C@H]2O)c1-c1nc2ccccc2s1", "values": [{"measurement": "Drug uptake", "setting": "Liver", "value": 405, "unit": "ng/g"}, {"measurement": "CC50 at 72 h", "setting": "[2]", "value": 8, "unit": "µM"}, {"measurement": "pEC50", "setting": "Hepatitis C virus", "value": 7.30}, {"measurement": "AUC(0-t) at 6 h", "setting": "[3]", "value": 3.2, "unit": "µM·h"}, {"measurement": "CC50 at 72 h", "setting": "[1]", "value": 8, "unit": "µM"}]}
